Article PMC6429183, “Identification of Compounds That Inhibit Estrogen-Related Receptor Alpha Signaling Using High-Throughput Screening Assays” (Molecules, 2019)
Values joined by “and” are separate entries in the source; they are usually repeats but may differ in a detail not shown here. Equal entries are not always repeated. Where two headings read alike, the source gives them in different places.

Experiments:
[1] = test system: ERR reporter HEK293 cells; test: CellTiter-Fluor cell viability assay multiplexed with ERR reporter assay; type: cell-based; conditions: for EC50: Homo sapiens; for ERR-HEK293 Follow-Up Viability EC50: follow-up screen
Experimental: (§1) ERR or PGC/ERR reporter HEK293 cells suspended in culture medium without puromycin were dispensed at 2500 cells/5 μL/well in tissue culture–treated 1536-well white assay plates (Greiner Bio-One North America, Monroe, NC, USA) using a Thermo Scientific Multidrop Combi (ThermoFisher Scientific, Inc.). […] After the cells were incubated at 37 °C with 5% CO2 for 6 h, 23 nL of compounds or control, XTC790, was transferred into the assay plates using a Wako Pintool station (Wako Automation, San Diego, CA, USA). The assay plates were incubated at 37 °C for 18 h, followed by the addition of 5 μL ONE-Glo luciferase reagent (Promega, Madison, WI, USA) using a Flying Reagent Dispenser (Aurora Discovery, Carlsbad, CA, USA). After 30 min of incubation at room temperature, the luminescence intensity of the assay plates was quantified using a ViewLux plate reader (PerkinElmer, Shelton, CT, USA). The assays were performed three times for each compound concentration. These ERR and PGC/ERR reporter assays were multiplexed with the CellTiter-Fluor Cell Viability Assay (Promega), a fluorescence-based cell viability assay, to assess compound cytotoxicity.
The qHTS data were analyzed as described previously. […] The DMSO-only compound plates at the beginning and end of the compound plate stack were used to correct the data set by applying an in-house pattern correction algorithm. The half maximum inhibition values (IC50) for each compound and maximum response (efficacy) values were obtained by fitting the concentration-response curves of each compound to a four-parameter Hill equation [91]. […] For each reading, the activity outcome of a test compound was first categorized by the average curve rank from the triplicate runs and the reproducibility calls. The final activity outcome of each compound was based on the ERR antagonist readout activity and cell viability counter screen.

[2] = test system: PGC/ERR reporter HEK293 cells; test: CellTiter-Fluor cell viability assay multiplexed with PGC/ERR reporter assay; type: cell-based; conditions: for EC50: Homo sapiens; for PGC/ERR-HEK293 Follow-Up Viability EC50: follow-up screen; for PGC/ERR-HEK293 Primary Viability EC50: primary qHTS
Experimental: as §1
The qHTS data were analyzed as described previously. Each titration point was normalized relative to the positive control compound (XCT790 = −100%) and DMSO-only wells (0%) according to the following equation: % Activity = [(Vcompound − VDMSO)/(VDMSO − Vpos)] × 100, where Vcompound denotes the compound well values, Vpos denotes the median value of the positive control wells, and VDMSO denotes the median values of the DMSO-only wells. The DMSO-only compound plates at the beginning and end of the compound plate stack were used to correct the data set by applying an in-house pattern correction algorithm. The half maximum inhibition values (IC50) for each compound and maximum response (efficacy) values were obtained by fitting the concentration-response curves of each compound to a four-parameter Hill equation [91]. Compounds were designated as Class 1–4 according to the type of concentration–response curve observed. For each reading, the activity outcome of a test compound was first categorized by the average curve rank from the triplicate runs and the reproducibility calls. The final activity outcome of each compound was based on the ERR antagonist readout activity and cell viability counter screen.

[3] = test system: IDH3α; test: qRT-PCR mRNA expression of ERR downstream gene IDH3α; type: cell-based; conditions: ERR reporter cells, vs GAPDH, DMSO = 0%
Experimental: (§2) Total RNA was isolated from treated ERR reporter cells using an RNeasy Mini Kit (Qiagen, Germantown, MD, USA), homogenized using a QIAshredder (Qiagen), and reverse transcribed with a High-Capacity RNA-to-cDNA™ Kit (ThermoFisher Scientific, Inc.) following the manufacturers’ instructions. Expression of ERRα, COX8α, IDH3α, PPARα, COX4I1, and cytochrome c genes was normalized against GAPDH. All primers were purchased from ThermoFisher Scientific, Inc. Real-time PCR assays were performed in 384-well plates on a QuantStudio 5 (Applied Biosystems, Foster City, CA, USA) with TaqMan™ Gene Expression Master Mix (ThermoFisher Scientific, Inc.). Induction values were calculated using the equation: Fold = 2^ΔΔCt, where ΔCt represents the differences in cycle threshold numbers between each of the target genes and GAPDH, and ΔΔCt represents the relative change in these differences between control and treatment groups. Experimental data are presented as a mean of triplicate determinations ± SD. Statistical comparisons were made by t-test, while the statistical significance was set at p values of <0.05 (light blue), <0.01 (medium blue), and <0.001 (dark blue).

[4] = test system: COX4I1; test: qRT-PCR mRNA expression of ERR downstream gene COX4I1; type: cell-based; conditions: ERR reporter cells, vs GAPDH, DMSO = 0%
Experimental: as §2, with “Experimental data are presented as a mean of triplicate determinations ± SD. Statistical comparisons were made by t-test, while the statistical significance was set at p values of <0.05 (light blue), <0.01 (medium blue), and <0.001 (dark blue).” left out

[5] = test system: cytochrome c; test: qRT-PCR mRNA expression of ERR downstream gene cytochrome c; type: cell-based; conditions: ERR reporter cells, vs GAPDH, DMSO = 0%
Experimental: as §2

[6] = molecular target: T1, ERRα with PGC-1α (PGC/ERR pathway) (Homo sapiens, UniProt P11474); test: PGC/ERR reporter (luciferase) qHTS assay, PGC/ERR-HEK293; conditions: for EC50: mean ± SD, triplicate; for PGC/ERR-HEK293 Follow-Up Efficacy: follow-up screen; for PGC/ERR-HEK293 Follow-Up Efficacy / PGC/ERR-HEK293 Primary Efficacy: negative = antagonism, positive = agonism; for activity in the ERR/PGC assay: in words; for PGC/ERR-HEK293 Primary Efficacy: primary qHTS
T1 sequence (P11474 1-423): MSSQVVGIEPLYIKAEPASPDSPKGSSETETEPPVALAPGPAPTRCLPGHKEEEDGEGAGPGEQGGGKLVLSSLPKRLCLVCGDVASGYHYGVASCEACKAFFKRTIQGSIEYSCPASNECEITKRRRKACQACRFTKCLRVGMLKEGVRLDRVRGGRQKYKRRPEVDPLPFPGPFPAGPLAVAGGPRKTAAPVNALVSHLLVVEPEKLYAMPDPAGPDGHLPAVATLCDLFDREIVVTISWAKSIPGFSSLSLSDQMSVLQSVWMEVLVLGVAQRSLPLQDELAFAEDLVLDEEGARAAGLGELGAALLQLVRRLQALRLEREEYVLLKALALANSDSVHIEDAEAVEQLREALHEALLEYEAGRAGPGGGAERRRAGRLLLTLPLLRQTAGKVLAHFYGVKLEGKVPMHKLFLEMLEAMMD
Experimental: (§3) The ERR reporter HEK293 cells were cultured in high glucose DMEM medium (ThermoFisher Scientific, Inc., Waltham, MA, USA) supplemented with 10% fetal bovine serum (FBS; ThermoFisher Scientific, Inc.), 4 mM of L-glutamine (ThermoFisher Scientific, Inc.), 1 mM of sodium pyruvate (ThermoFisher Scientific, Inc.), 100 U/mL of penicillin and 100 mg/mL of streptomycin (ThermoFisher Scientific, Inc.). PGC/ERR reporter HEK293 cells were cultured in the same medium as the ERR reporter HEK293 cells with an additional 1 μg/mL puromycin (ThermoFisher Scientific, Inc.) as the selection marker for PGC-1α expression.
(§4) The DMSO-only compound plates at the beginning and end of the compound plate stack were used to correct the data set by applying an in-house pattern correction algorithm [90]. The half maximum inhibition values (IC50) for each compound and maximum response (efficacy) values were obtained by fitting the concentration-response curves of each compound to a four-parameter Hill equation [91]. […] For each reading, the activity outcome of a test compound was first categorized by the average curve rank from the triplicate runs and the reproducibility calls. The final activity outcome of each compound was based on the ERR antagonist readout activity and cell viability counter screen.

[7] = molecular target: T2, estrogen-related receptor alpha (ERRα) (Homo sapiens, UniProt P11474); test: ERR reporter (luciferase) antagonist qHTS assay, ERR-HEK293; conditions: for EC50: mean ± SD, triplicate; for ERR-HEK293 Follow-Up Efficacy: follow-up screen; for ERR-HEK293 Follow-Up Efficacy / ERR-HEK293 Primary Efficacy: relative to XCT790 = −100%; for activity in the ERR assay: in words; for ERR-HEK293 Primary Efficacy: primary qHTS, DMSO = 0%
T2 sequence (P11474 1-423): T1 sequence (P11474 1-423)

[8] = test system: COX8α; test: qRT-PCR mRNA expression of ERR downstream gene COX8α; type: cell-based; conditions: 2 µM; ERR reporter cells; vs GAPDH, DMSO = 0%
Experimental: as §2

[9] = molecular target: T2, estrogen-related receptor alpha (ERRα)
[10] = molecular target: T1, ERRα with PGC-1α (PGC/ERR pathway)
Experimental: as §3, §4

[11] = test system: Nrf2/antioxidant response element (ARE); test: Nrf2/ARE-HepG2 β-lactamase reporter agonist assay; type: cell-based; conditions: agonist mode, heatmap outcome
Experimental: After the assay plates were incubated at 37 °C for 5–6 h, 23 nL of compounds dissolved in DMSO or positive controls were transferred to the assay plates via a Wako Pintool station (Wako). Except for ARE and p53, all other assays received 1 µL/well agonist (10 nM R1881 for AR; 0.5 and 5 nM β-estradiol for ERα and ERβ respectively; 300 µM CDCA for FXR; 50 nM Rosiglitazone for PPARγ; and 5 nM R5020 for PR) or assay medium using a Flying Reagent Dispenser (FRD). The assay plates were incubated for 16 h (AR, Nrf2/ARE, ERβ, FXR, p53, and PR), 17 h (PPARγ), or 18 h (ERα) at 37 °C, and 1 µL/well LiveBLAzer™ FRET-B/G CCF4-AM substrate (ThermoFisher Scientific, Inc.) detection mix was added using an FRD and the plates were incubated at room temperature for 2 h. […] Data were expressed as the ratio of 460/530 nm emission values.

[12] = primary qHTS, viability counter screen
[13] = HEK293, primary qHTS, read-out: PGC/ERR-HEK293 Primary Viability EC50 (converted)
[14] = PGC/ERR-HEK293 Follow-Up EC50, follow-up screen
[15] = PGC/ERR-HEK293 Primary EC50, primary qHTS, 18 h
[16] = ERR-HEK293 Follow-Up EC50, follow-up (confirmation) screen
[17] = ERR-HEK293 Primary EC50, primary qHTS, 18 h, 15 concentrations

SMILES | ERR-HEK293 Primary Viability EC50 [1, 12] | EC50 [2, 13] [nM] | EC50 [6, 14] [nM] | EC50 [6, 15] [nM] | PGC/ERR-HEK293 Follow-Up Efficacy [6] [%] | activity in the ERR/PGC assay [6] | PGC/ERR-HEK293 Primary Efficacy [6] [%] | EC50 [7, 16] [nM] | EC50 [7, 17] [nM] | ERR-HEK293 Follow-Up Efficacy [7] [%] | activity in the ERR assay [7] | ERR-HEK293 Primary Efficacy [7] [%] | ERR-HEK293 Follow-Up Viability EC50 [1] | PGC/ERR-HEK293 Follow-Up Viability EC50 [2] | PGC/ERR-HEK293 Primary Viability EC50 [2] | ERR-HEK293 Follow-Up Efficacy [9] [%] | ERR-HEK293 Primary Efficacy [9] [%] | PGC/ERR-HEK293 Follow-Up Efficacy [10] [%] | PGC/ERR-HEK293 Primary Efficacy [10] [%] | also measured
C=C(C)[C@H]1Cc2c(ccc3c2O[C@@H]2COc4cc(OC)c(OC)cc4[C@@H]2C3=O)O1 [Rotenone] | Inactive | 1010 | 61.8 ± 61 | 7.42 ± 2.07 | −41.9 ± 8.70 | antagonism | −31.0 ± 4.14 | 16 ± 6.71 | 13.3 ± 4.76 | −95.8 ± 17.8 | potent antagonists | −92.4 ± 3.03 | – | – | – | – | – | – | – | EC50 ([1]; HEK293, read-out: ERR-HEK293 Follow-Up Viability EC50): 429 nM; EC50 ([2]; HEK293, follow-up screen, read-out: PGC/ERR-HEK293 Follow-Up Viability EC50 (converted)): 2970 nM; Percent inhibition of mRNA gene expression, IDH3α ([3]; 175 nM): 22.4% and 22.4 ± 3.14%; Percent inhibition of mRNA gene expression, COX4I1 ([4]; 175 nM): 2.34 ± 3.78%; Percent inhibition of mRNA gene expression, Cytochrome C ([5]; 175 nM): 27.3% and 27.3 ± 7.33%
CO/N=C(/C(=O)OC)c1ccccc1COc1ccccc1C [Kresoxim-methyl] | Inactive | – | 17700 ± 6040 | 7660 ± 6870 | – | – | – | 8310 ± 3290 | 5650 ± 6960 | – | – | – | Inactive | Inactive | Inactive | −102 ± 1.40 | −86.6 ± 21.1 | −61.1 ± 10.0 | −56.7 ± 8.51 | Percent inhibition of mRNA gene expression, COX8α [8]: 9.70 ± 12.8%; Percent inhibition of mRNA gene expression, IDH3α ([3]; 2 µM): 8.26 ± 19.3%; Percent inhibition of mRNA gene expression, Cytochrome C ([5]; 2 µM): 9.31 ± 0.48%
Cc1nc2ccccc2n1Cc1ccc(Cl)cc1 [Chlormidazole] | – | – | – | – | – | – | – | – | – | – | – | – | – | – | – | – | – | – | – | Percent inhibition of mRNA gene expression, IDH3α ([3]; 5 µM): 23.8 ± 3.17%; Percent inhibition of mRNA gene expression, COX4I1 ([4]; 5 µM): 4.71 ± 5.09%; Percent inhibition of mRNA gene expression, Cytochrome C ([5]; 5 µM): 35.8 ± 3.92%
COC(=O)N(OC)c1ccccc1COc1ccn(-c2ccc(Cl)cc2)n1 [Pyraclostrobin] | – | 74500 | 539 ± 760 | 838 ± 771 | – | – | – | 762 | 239 ± 130 | – | – | – | Inactive | Inactive | – | −80.0 ± 5.67 | −90.7 ± 11.9 | −42.1 ± 9.82 | −58.2 ± 4.17 | EC50 ([1]; HEK293, primary qHTS, viability counter screen, read-out: ERR-HEK293 Primary Viability EC50 (converted)): 40900 nM; Percent inhibition of mRNA gene expression, IDH3α ([3]; 1 µM): 5.06 ± 5.03%; Percent inhibition of mRNA gene expression, Cytochrome C ([5]; 1 µM): 11.0 ± 8.54%
C[C@@H]1CC[C@H]2[C@@H](C)C(=O)O[C@@H]3O[C@@]4(C)CC[C@@H]1[C@]32OO4 [Artemisinin] | Inactive | – | 14500 ± 10800 | 1780 ± 401 | −72.8 ± 22.0 | antagonism | −57.6 ± 2.03 | 2440 ± 1220 | 1010 ± 297 | −83.7 ± 14.6 | – | −71.6 ± 5.57 | Inactive | – | – | – | – | – | – | Percent inhibition of mRNA gene expression, IDH3α ([3]; 7 µM): 30.2%; Percent inhibition of mRNA gene expression, Cytochrome C ([5]; 7 µM): 36.2%; activity in the Nrf2-ARE assay [11]: active agonists; ERR-HEK293 Primary Efficacy ([7]; listed as artemisinin): −71.6%
CC(C)(C)c1ccc(CSc2cnn(C(C)(C)C)c(=O)c2Cl)cc1 [Pyridaben] | Inactive | – | 43.4 ± 20 | 7.81 ± 3.01 | – | antagonism | – | 24.5 ± 9.42 | 5.92 ± 0.815 | – | potent antagonists | – | Inactive | Inactive | Inactive | −94.1 ± 13.4 | −77.3 ± 4.10 | −63.1 ± 29.7 | −57.6 ± 8.49 | Percent inhibition of mRNA gene expression, IDH3α ([3]; 15 nM): 14.6%
